Measured values: US8232099B2, “Method for transcription/degradation dual control of protein by antibiotic” (Japan Science and Technology Agency, priority 2007, dated 2012)
Residues, ends and D or L forms follow the SMILES beside them. *: point of attachment. Cbz = O=C(OCc1ccccc1)*

Assays:
Format in all cases: cell-based, human
pOSTet15-TetRhCre = assay: Cre recombination reporter (Venus to DsRed1) in HEp-2, dual control; set-up: cells displaying red fluorescence only: dose or concentration left out as unconfirmed
Excerpt: As vectors to control the expression of the […] Cre protein, three types of vectors were constructed for: control by protein degradation only, control by transcription only and dual control. […] Three types of vectors were constructed, “pEB6CAG-TetRhCre”, which enables control by degradation alone, and created by turning the hCre cDNA into TetRhCre which enables degradation control by doxycycline, and which was then integrated into the constitutive gene expression vector “pEB6CAG” described above; “pOSTet15-hCre”, which enables control by transcription alone and was created by integrating hCre cDNA into “pOSTet15”: “pOSTet15-TetRhCre”, which enables dual control and created by integrating TetRhCre into “pOSTet15”. In addition to these, as a monitoring vector for confirming the DNA recombination effect by the Cre protein, a recombination reporter vector in which the yellow fluorescent protein Venus was flanked by loxP sequences and the red fluorescent protein DsRed1 was placed downstream thereof, “pEB6CAG-Venus-lox-R1-SRZ” (FIG. 10), was also constructed. […] The expression effect of Cre can be detected simply from this change in fluorescence wavelength (FIG. 10).
Using a commercially available lipofection reagent, this DNA was introduced into the human cell line HEp-2, the cell line was cultured for four days in the presence of 1.5 mg/ml G418 and 0.1 mg/ml zeocin, and only cells with the two species of DNA introduced were selected. Fluorescences at two wavelengths, yellow and red, were measured with a flow cytometer.
Next, comparison on the capabilities was performed, between when Cre protein expression regulation is carried out by protein degradation control alone and transcription control alone, and the dual control system of the present invention. […]
Next, analyses were performed on the influence of the concentration of doxycycline exerted on recombination efficiency. Two species, the vector for Cre dual control and the recombination reporter vector described above, were introduced into a cell, and after selection over […] efficiency.

mutant TetR-EGFP = assay: Flow cytometer fluorescence of HEp-2 cells expressing mutant TetR-EGFP; settings: various concentrations
Excerpt: (§1) All of or any two mutations in combination from three types of mutations, which substitute aspartic acid at the 95th position with asparagine, leucine at the 101st position with serine and glycine at the 102nd position with aspartic acid, were introduced into the tetracycline repressor (TetR), which is an Escherichia coli protein that binds to the antibiotic tetracycline (Tet). The procedure was as follows:
An oligonucleotide encoding an amino acid sequence containing the amino acid substitution to be introduced was synthesized, and this was used to prepare a DNA fragment containing a mutation by PCR reaction. […]
(§2) An oligo-DNA was synthesized, having a base sequence in which the termination codon has been substituted so as to encode another amino acid instead of the termination codon in the TetR gene, and downstream thereof, a sequence that is recognized and cut by a restriction enzyme; this was used to carry out a PCR reaction to prepare a DNA fragment encoding TetR with no termination codon, and this was substituted with the corresponding site on the DNA encoding the wild-type gene. Then, the DNA was cut by a restriction enzyme and ligated with the upstream side of a DNA fragment encoding EGFP in such a way that the translation open reading frames for protein synthesis match (FIG. 1A). […]

pEB6CAG-TetRhCre = assay: Cre recombination reporter in HEp-2, control by protein degradation alone; settings: 1.0 μg/ml doxycycline
Excerpt: (§3) As vectors to control the expression of the lambda phage Cre protein, three types of vectors were constructed for: control by protein degradation only, control by transcription only and dual control. […] The expression effect of Cre can be detected simply from this change in fluorescence wavelength (FIG. 10).

pOSTet15-hCre = assay: Cre recombination reporter in HEp-2, control by transcription alone; settings: 1.0 μg/ml doxycycline
Excerpt: as §3

[1] = tested on: pOSTet15-eTetREGFP and pOSTet15-hTetREGFP; assay: EGFP expression induction in HEp-2, dual control of transcription and degradation
Excerpt: A cDNA was integrated into the constitutive gene expression vector “pEB6CAG” or the vector “pOSTet15” enabling transcription-regulated expression through doxycycline, which the present inventors developed by applying the methods in Japanese National-phase PCT Laid-Open Patent Publication No. 2003-515314 (the entirety of which is incorporated herein by reference). The cDNA to be expressed integrates a simple fluorescent protein EGFP, or eTetREGFP or hTetREGFP, which degradation control is enabled by doxycycline. […]
Using a commercially available lipofection reagent, this DNA was introduced into the human cell line HEp-2, the cell line was cultured for four days in the presence of 1.5 mg/ml G418, and only cells with the DNA introduced were selected. These cells were subjected to a flow cytometer and the intensity of fluorescence by EGFP was measured cell by cell to determine the average fluorescence intensity thereof.

wild-type TetR-EGFP = target: T1, wild-type TetR-EGFP (Escherichia coli, UniProt P04483); assay: Flow cytometer fluorescence of HEp-2 cells expressing wild-type TetR-EGFP; settings: 100 μg/ml MG132, 12 hours
T1 construct: prepare a DNA fragment encoding TetR with no termination codon; expressed in transfected cells; host or cells: human cell line HEp-2, vector pEB6CAG
T1 sequence (P04483 whole entry, the tested form may be a part): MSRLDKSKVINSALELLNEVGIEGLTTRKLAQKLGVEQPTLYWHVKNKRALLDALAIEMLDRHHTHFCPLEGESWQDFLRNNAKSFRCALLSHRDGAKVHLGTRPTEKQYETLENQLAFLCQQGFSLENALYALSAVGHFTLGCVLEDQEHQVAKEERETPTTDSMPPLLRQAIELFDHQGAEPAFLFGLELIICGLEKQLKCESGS
Excerpt: as §1
Next, cDNAs encoding TetR-EGFP in which wild-type TetR gene and mutation-introduced TetR gene, respectively, are fused with green fluorescent protein (EGFP) were created. The procedure was as follows.
as §2

C[C@H]1c2cccc(O)c2C(=O)C2=C(O)[C@]3(O)C(=O)C(C(N)=O)=C(O)[C@@H](N(C)C)[C@@H]3[C@@H](O)[C@@H]21 [doxycycline]
cells displaying red fluorescence only (pOSTet15-TetRhCre): 60% | decrease in cell count due to cytotoxicity (pOSTet15-TetRhCre; 1.0 μg/ml doxycycline, treated for three days): almost no decrease in cell count | cells changed to red fluorescence (pOSTet15-TetRhCre; 1.0 μg/ml doxycycline, treatment of only one day): ≥ 70% | cells in which red fluorescence was detected (red only plus both yellow and red) (pOSTet15-TetRhCre; 1 mg/ml doxycycline): ≥ 70% | concentration needed to ensure that recombination occurs (pOSTet15-TetRhCre; four concentration steps from 0.001 μg/ml to 1.0 μg/ml): 1.0 µg/mL | concentration at which enhancement of fluorescence started to be observed (mutant TetR-EGFP): ≥ 0.05 µg/mL | concentration at which the maximum intensity of fluorescence was reached (mutant TetR-EGFP): 1.5 µg/mL | cytotoxicity when doxycycline was added (pEB6CAG-TetRhCre): killing cells | cytotoxicity when doxycycline was added (pOSTet15-hCre): cytotoxicity was observed | induction ratio of fluorescence, doxycycline added vs not added [1]: ≥ 400 times

CC(C)C[C@@H](C=O)NC(=O)[C@H](CC(C)C)NC(=O)[C@H](CC(C)C)NC(=O)OCc1ccccc1 [MG132] (Cbz-Leu-Leu-Leu-aldehyde)
change in intensity of fluorescence (wild-type TetR-EGFP): no major change
